For series [1], the system named is Mammalian cell line L292 and MEF cell lines. The series can be described thus: MTT assay cytotoxicity (survival analysis). It counts as cell-based, human. Particulars: 100 μg/mL, 24 hours, 570 nm absorbance. How it is done: Mammalian cell line L292 and MEF cell lines were cultured in Dulbecco's modified Eagle culture medium, wherein the culture medium was added with 100 μg/mL streptomycin, 100 U/mL penicillin and 10% (v/v) fetal bovine serum, and then the cell lines were cultured the in 5% CO2 containing humidified incubator under 37° C.
MTT assay was used for investigating the cytotoxicity of compound on mammalian cells. The cells were cultured at 96-well tray with 100 μL culture medium for 24 hours after sterilization, then the cells were cultured in the diluted culture medium for 24 hours. 3-(4,5-dimethylthiazol-2yl)-2,5-diphenyltetrazolium bromide (MTT) was added into each well of 96-well tray and incubated for 4 hours. The cell suspension was removed and 100 μL dimethyl sulfoxide was added for dissolving all the precipitate. Enzyme immunoassay instrument was used for measure the 570 nm absorbance.
A general note: Formazan colour is commonly taken as a measure of viable cells.

Another series deals with Staphylococcus aureus. The series can be described thus: Antibiotics activity test (bacteria concentration OD630 over time). The class given is cell-based. Particulars: 1 μg/ml Fmoc-Ala-OPfp in culture medium, 8 hours after bacterial inoculation, 37° C.; compared with ampicillin and vancomycin. The method, then:
The bacteria were cultured for antibiotics activity test. (FIG. 3) The cultured cells were added with specific concentration of Fmoc-Ala-OPfp, Ampicillin and Vancomycin as experimental group, and the cultured cells were not added with any drugs as control group, and the same amount of Staphylococcus aureus colonies were added then cultured in an incubator under 37° C. The different time of bacteria concentrations (OD630) were tested to investigate the antibiotic inhibitory effect of Fmoc-Ala-OPfp, Ampicillin and Vancomycin.
Only a small amount (1 μg/ml) of Fmoc-Ala-OPfp was added in the culture medium.

A further series relates to human red blood cells. Nature of the series: Hemolytic test. It counts as cell-based. Particulars: at 100 μg/ml; human red blood cells 2% (V/V), 37° C., 1 hour, O.D. 490 nm. The method, then: Fresh human red blood cells were washed by 0.9% physiological saline for three times, then were dissolved into 2% (V/V) physiological saline, and 50 μL red blood cells suspension and 50 μL of the compound (10, 50 and 100 μg/ml of antibiotic Fmoc-Ala-OPfp) and Triton X-100 was added into the 96-well tray, wherein the final concentration of red blood cells was 2% (V/V). The sample was slightly shaking in the incubator under 37° C. for 1 hour and centrifuged with 2000 g for 30 minutes. 50 μL sample suspension was dropped into a new 96-well tray and the O.D. 490 nm absorbance was measured. The physiological saline and Triton X-100 was negative control group and positive control group, respectively.

As to `C[C@H](NC(=O)OCC1c2ccccc2-c2ccccc21)C(=O)Oc1c(F)c(F)c(F)c(F)c1F` [Fmoc-Ala-OPfp, N-(9-fluorenylmethoxycarbonyl)-L-alanine pentafluorophenyl], in series [1], the “cell toxicity on MTT assay” value is 10-20%. Moreover, in the series on Staphylococcus aureus, the “antibiotic effect (inhibition of bacteria growth, OD630)” value is “equivalent to 5.3 μg/ml of ampicillin and 5.3 μg/ml vancomycin”. Moreover, the hemolytic activity entry in the series on human red blood cells was “low hemolytic activity”.
